The values below come from ChEMBL document CHEMBL5385861, “Development of novel hydrazidoarylaminopyrimidine-based BTK/FLT3 dual inhibitors with potent in vivo anti-hematological malignancies effects” (Eur J Med Chem, 2023).

Each structure is given as a SMILES string. Activity calls are given as the source filed them. Where only a bound is given, the exact number is not on record here.

Data set [1] relates to JeKo-1. The data set can be described thus: cells. The settings on record: Homo sapiens, JeKo-1, 72 h.
Description: Antiproliferative activity against human JeKo-1 cells assessed as inhibition of cell growth incubated for 72 hrs by CCK8 assay
In data set [2] the test system is K562. The data set can be described thus: cells. The settings on record: Homo sapiens, K562, 72 h.
Description: Antiproliferative activity against human K562 cells assessed as inhibition of cell growth incubated for 72 hrs by CCK8 assay
Data set [3] addresses Tyrosine-protein kinase BTK (Homo sapiens, UniProt Q06187). The experiment in a line: Inhibition of BTK (unknown origin) incubated for 40 mins by radiometric kinase assay.
For data set [4], the system named is MV4-11. The experiment in a line: cells. To be noted: Homo sapiens, MV4-11, 72 h.
The subject of data set [5] is MOLT-4. The experiment in a line: cells. The settings on record: Homo sapiens, MOLT-4, 72 h.
Description: Antiproliferative activity against human MOLT-4 cells assessed as inhibition of cell growth incubated for 72 hrs by CCK8 assay
Data set [6] in a line: in vitro. To be noted: human, Caco-2.
Description: Apparent permeability across apical to basolateral side in human Caco-2 cells incubated for 120 mins by LC-MS/MS analysis
Data set [7] in a line: in vitro. The settings on record: human, Caco-2. The source holds these as a separate data set.
Description: Apparent permeability across basolateral to apical side in human Caco-2 cells incubated for 120 mins by LC-MS/MS analysis
Data set [8] deals with P-glycoprotein. The experiment in a line: in vitro. To be noted: human, Caco-2.
Description: Efflux ratio of apparent permeability across basolateral to apical side over apical to basolateral side in human Caco-2 cells incubated for 120 mins in presence of P-glycoprotein by LC-MS/MS analysis
The subject of data set [9] is MV4-11. The data set can be described thus: Antitumor activity against human MV4-11 cells xenografted NOD/SCID mouse assessed as increase in tumor necrotic cells at 20 mg/kg, ip administered once daily for 21 days by H and E staining analysis. The settings on record: time 21.0 day. It counts as functional, organism-based.
Data set [10] can be described thus: Metabolic stability in human liver microsome assessed as intrinsic clearance preincubated with compound for 5 mins followed by NADPH addition and measured upto 60 mins by LC-MS/MS analysis. It is filed as ADME. To be noted: liver microsomes, time < 65 min, read-out: CLH. For orientation: Liver microsomes are a subcellular fraction often used to study metabolism.

A short description of data set [11]: Metabolic stability in human liver microsome assessed as half life preincubated with compound for 5 mins followed by NADPH addition and measured upto 60 mins by LC-MS/MS analysis. It counts as ADME. To be noted: liver microsomes, time < 65 min.
The subject of data set [12] is JeKo-1. The data set can be described thus: Induction of apoptosis in human JeKo-1 cells assessed as early apoptotic cells at 750 nM incubated for 72 hrs by Annexin VFITC/PI staining based flow cytometry analysis (reference value: 3.10%). It counts as functional. A general note: A flow cytometer gives signals particle by particle.
For data set [13], the system named is JeKo-1. The experiment in a line: Induction of apoptosis in human JeKo-1 cells assessed as viable cells at 750 nM incubated for 72 hrs by Annexin VFITC/PI staining based flow cytometry analysis (reference value: 94.81%). It counts as functional.
For data set [14], the system named is JeKo-1. The experiment in a line: Induction of apoptosis in human JeKo-1 cells assessed as late apoptotic cells at 750 nM incubated for 72 hrs by Annexin VFITC/PI staining based flow cytometry analysis (reference value: 1.42%). It counts as functional.
Data set [15] deals with JeKo-1. The data set can be described thus: Induction of apoptosis in human JeKo-1 cells assessed as necrotic cells at 750 nM incubated for 72 hrs by Annexin VFITC/PI staining based flow cytometry analysis (reference value: 0.67%). It is filed as functional.
For data set [16], the system named is JeKo-1. The data set can be described thus: Antitumor activity against human JeKo-1 cells xenografted NOD/SCID mouse assessed as reduction in tumor weight at 50 mg/kg, ip measured for 16 days. To be noted: time 16 day. It is filed as functional. For orientation: Xenograft models place foreign cells or tissue in a host animal.
For data set [17], the system named is JeKo-1. The data set can be described thus: Antitumor activity against human JeKo-1 cells xenografted NOD/SCID mouse assessed as tumor growth inhibition at 50 mg/kg, ip measured for 16 days. It counts as functional. The settings on record: JeKo-1, 384 h, time 16 day, read-out: TGI.

Sequence of Tyrosine-protein kinase BTK (Q06187 whole entry): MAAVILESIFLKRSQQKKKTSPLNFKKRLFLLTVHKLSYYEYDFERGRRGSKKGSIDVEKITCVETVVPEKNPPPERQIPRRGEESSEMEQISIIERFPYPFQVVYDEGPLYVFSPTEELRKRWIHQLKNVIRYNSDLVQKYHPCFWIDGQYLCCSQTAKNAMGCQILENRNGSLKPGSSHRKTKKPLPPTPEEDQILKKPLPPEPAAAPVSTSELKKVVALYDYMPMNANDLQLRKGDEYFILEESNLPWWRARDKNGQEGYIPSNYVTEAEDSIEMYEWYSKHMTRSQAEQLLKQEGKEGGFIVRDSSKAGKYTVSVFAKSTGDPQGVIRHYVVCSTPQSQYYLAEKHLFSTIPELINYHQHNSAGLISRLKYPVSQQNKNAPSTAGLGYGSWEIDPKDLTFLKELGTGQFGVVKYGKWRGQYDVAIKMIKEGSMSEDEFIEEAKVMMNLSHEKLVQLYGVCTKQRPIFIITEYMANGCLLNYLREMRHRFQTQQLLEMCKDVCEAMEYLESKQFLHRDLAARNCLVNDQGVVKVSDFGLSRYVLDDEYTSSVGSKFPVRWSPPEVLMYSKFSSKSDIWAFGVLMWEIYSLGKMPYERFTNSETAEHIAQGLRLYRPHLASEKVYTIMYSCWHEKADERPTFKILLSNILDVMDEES

The term IC50 denotes the point on the concentration scale where inhibition reaches its midpoint. A high value points to weaker potency in that assay. In data set [1], `NNC(=O)c1ccc(Nc2nc(Nc3ccc(N4CCOCC4)cc3)ncc2F)cc1` displayed an IC50 of more than 2000 nM.
For the molecule `NNC(=O)c1ccccc1Nc1nc(Nc2ccc(N3CCOCC3)cc2)ncc1F`, the IC50 in [2] was more than 25000 nM; in data set [3], 105 nM; in data set [1], 88 nM; in [4] it was 41 nM; in [5], 239 nM.
In turn, `CN1CCN(c2ccc(Nc3ncc(F)c(Nc4ccc(C(=O)NN)cc4)n3)cc2F)CC1` displayed a half-maximal inhibitory concentration (IC50) in [1] of 1090 nM.
`CN1CCN(c2ccc(Nc3ncc(F)c(Nc4cccc(C(=O)NN)c4)n3)cc2)CC1` returned an IC50 in data set [1] of 562 nM.
The same measure, in the same setting: the result for `CCN1CCN(c2ccc(Nc3ncc(F)c(Nc4ccc(C(=O)NN)cc4)n3)cc2)CC1` reads 1750 nM.
Regarding `NNC(=O)c1cccc(Nc2nc(Nc3ccc(N4CCCCC4)cc3)ncc2F)c1`, the IC50 in data set [1] came out at 1240 nM.
The Papp A→B is how fast a substance crosses the layer from the apical side. A low value points to poor permeation. Broadly, the Papp B→A is how fast a substance crosses the layer from the basolateral side. As a reminder, the efflux ratio is the permeability from basolateral to apical divided by that in the opposite direction, in the common usage. The molecule `CC(C)NCC(O)COc1cccc2ccccc12` (stereo unspecified) [PROPRANOLOL] returned a Papp A→B at 2 h in data set [6] of 32.4 ×10⁻⁶ cm/s. The Papp B→A at 2 h in data set [7] was 20.1 ×10⁻⁶ cm/s. The efflux ratio at 2 h in data set [8] was 0.62.
On to `CNC(=O)c1cc(Oc2ccc(NC(=O)Nc3ccc(Cl)c(C(F)(F)F)c3)cc2)ccn1` [SORAFENIB], for which the IC50 in data set [2] was 7740 nM; in [1] it was 1070 nM; in [5], 2500 nM. Further, the result in data set [9] was Active.
Turning to `CCN1CCN(c2ccc(Nc3ncc(F)c(Nc4cccc(C(=O)NN)c4)n3)cc2)CC1`, the IC50 in data set [1] worked out at 540 nM.
The molecule `COc1cc(N2CCN(C)CC2)ccc1Nc1ncc(F)c(Nc2ccc(C(=O)NN)cc2)n1` gave an IC50 in data set [1] of more than 2000 nM.
Take `CN1CCN(c2ccc(Nc3ncc(F)c(Nc4cccc(C(=O)NN)c4)n3)cc2F)CC1`: the IC50 in [1] was 222 nM.
Turning to `NNC(=O)c1ccccc1Nc1nc(Nc2ccc(N3CCCCC3)cc2)ncc1F`, the midpoint of inhibition in [1], the IC50, lay at 1880 nM.
The same measure, in the same setting: then `COc1cc(N2CCN(C)CC2)ccc1Nc1ncc(F)c(Nc2ccccc2C(=O)NN)n1`, with more than 2000 nM.
As for `CN1CCN(c2ccc(Nc3ncc(F)c(Nc4ccccc4C(=O)NN)n3)cc2F)CC1`, the IC50 in [2] was found to be 690 nM; in data set [3], 84 nM; in data set [1], 52 nM; in data set [4] it was 31 nM; in [5], 65 nM.
In data set [1], `NNC(=O)c1cccc(Nc2nc(Nc3ccc(N4CCOCC4)cc3)ncc2F)c1` showed an IC50 of 801 nM.
Same read-out and setting: then `NNC(=O)c1ccc(Nc2nc(Nc3ccc(N4CCCCC4)cc3)ncc2F)cc1`, with more than 2000 nM.
Usually half-life stands for the time needed for the level to fall by half in the phase considered. For `O=C(O)Cc1ccccc1Nc1c(Cl)cccc1Cl` [DICLOFENAC], in [10], the CLint scaled was determined as 230 mL/min/kg. The half-life in [11] was determined as 5.44 min.
As for `CN1CCN(c2ccc(Nc3ncc(F)c(Nc4ccc(C(=O)NN)cc4)n3)cc2)CC1`, the IC50 in [1] was found to be 1410 nM.
On the same count and under the same terms, the result for `COc1cc(N2CCN(C)CC2)ccc1Nc1ncc(F)c(Nc2cccc(C(=O)NN)c2)n1` reads more than 2000 nM; that for `CCN1CCN(c2ccc(Nc3ncc(F)c(Nc4ccccc4C(=O)NN)n3)cc2)CC1`, 1280 nM.
As for `C=CC(=O)N1CCC[C@@H](n2nc(-c3ccc(Oc4ccccc4)cc3)c3c(N)ncnc32)C1` [IBRUTINIB], the IC50 in [2] came out at 5570 nM; in data set [1] it was 1680 nM; in data set [4], 423 nM; in data set [5], 3520 nM. In addition, the Activity in [12] turned out to be 14.42%; in [13] it was 85.08%; in data set [14] it was 0.32%; in data set [15], 0.18%.
Consider `C=CC(=O)Nc1cccc(Nc2nc(Nc3ccc(OCCOC)cc3)ncc2F)c1` [SPEBRUTINIB], for which the Activity in data set [16] is 0.69 g. Moreover, the IC50 amounted to 7400 nM in data set [2], 1480 nM in data set [1], 245 nM in data set [4] and 1460 nM in [5]. In addition, the inhibition in vivo at 50 mg/kg in data set [17] was 38.1%.
Regarding `C[C@H]1O[C@@H](O[C@H]2[C@@H](O)C[C@H](O[C@H]3[C@@H](O)C[C@H](O[C@H]4CC[C@@]5(C)[C@H](CC[C@@H]6[C@@H]5C[C@@H](O)[C@]5(C)[C@@H](C7=CC(=O)OC7)CC[C@]65O)C4)O[C@@H]3C)O[C@@H]2C)C[C@H](O)[C@@H]1O` [DIGOXIN], the Papp A→B at 2 h in data set [6] came out at 0.25 ×10⁻⁶ cm/s. Further, the Papp B→A at 2 h in [7] was 11.2 ×10⁻⁶ cm/s. The efflux ratio at 2 h in data set [8] worked out at 44.1.
